Test results taken from patent US20190031599A1, “INDANE DERIVATIVES AS MGLUR7 MODULATORS” (Takeda Pharmaceutical Company Limited, priority 2016, published 2019).
pEC50: −log10 of the molar value.

What follows are compounds tested against T1, human mGluR7 (Homo sapiens, UniProt Q14831) (assay: mGluR7 assay: CRE-directed luciferase reporter gene assay, reduction of forskolin stimulated cAMP production). Conditions: stable CHO cell line expressing the CRE-luc reporter and human mGluR7 genes; decrease of forskolin stimulated luminescence; 10-point concentration-response, duplicate wells.
T1 construct: expressed in transfected cells
T1 sequence (Q14831 35-915): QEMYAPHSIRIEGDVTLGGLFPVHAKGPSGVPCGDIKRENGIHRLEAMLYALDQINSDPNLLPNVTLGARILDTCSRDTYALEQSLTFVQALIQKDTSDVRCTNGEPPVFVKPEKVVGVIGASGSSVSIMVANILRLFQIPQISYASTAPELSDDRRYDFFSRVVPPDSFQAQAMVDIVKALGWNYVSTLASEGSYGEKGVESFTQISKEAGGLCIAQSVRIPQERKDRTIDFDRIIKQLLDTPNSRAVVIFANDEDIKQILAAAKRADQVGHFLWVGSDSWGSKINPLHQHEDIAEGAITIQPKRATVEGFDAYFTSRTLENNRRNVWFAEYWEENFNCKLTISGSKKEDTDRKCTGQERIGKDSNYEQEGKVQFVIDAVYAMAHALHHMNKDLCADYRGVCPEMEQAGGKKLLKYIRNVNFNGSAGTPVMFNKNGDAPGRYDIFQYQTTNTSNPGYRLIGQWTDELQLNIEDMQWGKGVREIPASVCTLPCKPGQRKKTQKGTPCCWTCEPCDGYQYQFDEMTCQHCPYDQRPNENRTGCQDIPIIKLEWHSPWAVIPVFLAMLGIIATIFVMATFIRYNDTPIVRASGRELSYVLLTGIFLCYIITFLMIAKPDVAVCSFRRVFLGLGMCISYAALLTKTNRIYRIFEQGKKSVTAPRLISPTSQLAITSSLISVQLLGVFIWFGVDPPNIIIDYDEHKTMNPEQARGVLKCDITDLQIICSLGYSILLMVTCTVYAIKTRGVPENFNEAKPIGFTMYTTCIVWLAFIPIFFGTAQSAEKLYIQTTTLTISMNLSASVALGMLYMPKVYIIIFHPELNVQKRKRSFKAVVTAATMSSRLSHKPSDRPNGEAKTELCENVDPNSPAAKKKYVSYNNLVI
Format: cell-based
Procedure: The ability of the test compounds to activate mGluR7 was determined by their ability to reduce forskolin stimulated cAMP production. Compounds were assessed in a CRE-directed luciferase reporter gene assay, using a stable CHO cell line expressing the CRE-luc reporter and human mGluR7 genes. In this cell line, production of cAMP stimulated the transcription of the luciferase gene and luciferase activity was then measured in a luminescent enzyme assay (Steady Glo assay; Promega E2550). Activation of mGluR7 decreased the forskolin stimulated luminescence signal.
The day prior to the assay, compounds were serially diluted in DMSO (100× final assay concentration (FAC)), in 384-well plates which were then stored in the dark at room temperature (RT) until use. Cells were seeded at 12.5 k/well in white, clear bottom 384-well plates (Corning 3707) and left for one hour at RT followed by an overnight incubation (37° C.). The following day, the DMSO compound plate was diluted 1:20 (5× FAC) in Opti-MEM I (Life Technologies 11058021). The growth media was removed from the cell plate and replaced with 15 μl Opti-MEM I, followed by a 5 μl addition from the 5× compound plate and a fifteen minute incubation (37° C.). Forskolin (Sigma F3917) was then added to the wells (5 μl of 2.5 μM) and the plate was incubated for five hours (37° C.). During this incubation, the Steady Glo Substrate reagent was warmed to 37° C. Aliquots (11 ml; stored at −20° C.) of this reagent were prepared by dissolving the contents of 1 vial of lyophilised substrate in 100 ml Steady-Glo buffer. A 25 μl addition of the substrate was made to all wells and the plate was incubated for thirty minutes at RT, on a plate shaker (300 rpm; in the dark). Luminescence was then measured using the EnVision Multilabel Reader (Perkin Elmer).
Compound activity was examined using a 10-point, half log concentration-response range and each concentration was tested in duplicate wells. Luminescence values were normalised to ‘maximum’ (forskolin alone) and ‘minimum’ (forskolin in the presence of tool mGluR7 agonist) controls.

SMILES	pEC50
N[C@H]1c2ccccc2C[C@@H]1NC(=O)C(c1ccc(F)cc1)C1CC1 (single isomer, unassigned) [Example 96]	7.27
N[C@H]1c2ccccc2C[C@@H]1NC(=O)C(c1ccc(F)cc1)C1CC1 (single isomer, unassigned) [Example 97]	6.09
COC1c2ccccc2CC1NC(=O)[C@@H](NC(=O)C1CC1)c1ccc(F)cc1 (single isomer, unassigned) [Example 101]	8.22
COC1c2ccccc2CC1NC(=O)[C@@H](NC(=O)C1CC1)c1ccc(F)cc1 (single isomer, unassigned) [Example 102]	8.22
N[C@H]1c2ccccc2C[C@@H]1NC(=O)C(c1ccc(F)cc1F)N1CC(F)C1 (single isomer, unassigned) [Example 106]	7.09
N[C@H]1c2ccccc2C[C@@H]1NC(=O)C(c1ccc(F)cc1F)N1CC(F)C1 (single isomer, unassigned) [Example 107]	5.92
N[C@H]1c2ccccc2C[C@@H]1NC(=O)C(c1ccc(F)cc1F)n1ncccc1=O (single isomer, unassigned) [Example 109]	6.24
N[C@H]1c2ccccc2C[C@@H]1NC(=O)C(c1ccc(F)cc1F)n1ncccc1=O (single isomer, unassigned) [Example 110]	5.94
N[C@H]1c2ccccc2C[C@@H]1NC(=O)C(c1ccc(F)cc1)N1CC(F)C1 (single isomer, unassigned) [Example 115]	6.74
N[C@H]1c2ccccc2C[C@@H]1NC(=O)C(c1ccc(F)cc1)N1CC(F)C1 (single isomer, unassigned) [Example 116]	6.62
N[C@H]1c2ccccc2C[C@@H]1NC(=O)C(c1ccc(F)cc1)N1CC(F)C1 (single isomer, unassigned) [Example 117]	8.00
N[C@H]1c2ccccc2C[C@@H]1NC(=O)C(c1ccc(F)cc1)N1CC(F)C1 (single isomer, unassigned) [Example 118]	5.54
COC1c2ccccc2CC1NC(=O)C(c1ccc(F)cc1F)n1ncccc1=O (single isomer, unassigned) [Example 124, 2-(2,4-difluorophenyl)-N-(trans)-(1-methoxy-2,3-dihydro-1H-inden-2-yl)-2-(6-oxo-1,6-dihydropyridazin-1-yl)acetamide]	5.98
COC1c2ccccc2CC1NC(=O)C(c1ccc(F)cc1F)n1ncccc1=O (single isomer, unassigned) [Example 125, 2-(2,4-difluorophenyl)-N-(trans)-(1-methoxy-2,3-dihydro-1H-inden-2-yl)-2-(6-oxo-1,6-dihydropyridazin-1-yl)acetamide]	5.97
COC1c2ccccc2CC1NC(=O)C(c1ccc(F)cc1F)n1ncccc1=O (single isomer, unassigned) [Example 126, 2-(2,4-difluorophenyl)-N-(trans)-(1-methoxy-2,3-dihydro-1H-inden-2-yl)-2-(6-oxo-1,6-dihydropyridazin-1-yl)acetamide]	6.55
COC1c2ccccc2CC1NC(=O)C(c1ccc(F)cc1F)n1ncccc1=O (single isomer, unassigned) [Example 127, 2-(2,4-difluorophenyl)-N-(trans)-(1-methoxy-2,3-dihydro-1H-inden-2-yl)-2-(6-oxo-1,6-dihydropyridazin-1-yl)acetamide]	7.09
COC1c2ccccc2CC1NC(=O)C(c1ccc(F)cc1)n1ncccc1=O (single isomer, unassigned) [Example 128, 2-(4-fluorophenyl)-N-(trans)-(1-methoxy-2,3-dihydro-1H-inden-2-yl)-2-(6-oxo-1,6-dihydropyridazin-1-yl)acetamide]	5.88
COC1c2ccccc2CC1NC(=O)C(c1ccc(F)cc1)n1ncccc1=O (single isomer, unassigned) [Example 129, 2-(4-fluorophenyl)-N-(trans)-(1-methoxy-2,3-dihydro-1H-inden-2-yl)-2-(6-oxo-1,6-dihydropyridazin-1-yl)acetamide]	5.41

SMILES	pEC50
COC1c2ccccc2CC1NC(=O)C(c1ccc(F)cc1)n1ncccc1=O (single isomer, unassigned) [Example 130, 2-(4-fluorophenyl)-N-(trans)-(1-methoxy-2,3-dihydro-1H-inden-2-yl)-2-(6-oxo-1,6-dihydropyridazin-1-yl)acetamide]	6.83
COC1c2ccccc2CC1NC(=O)C(c1ccc(F)cc1)n1ncccc1=O (single isomer, unassigned) [Example 131, 2-(4-fluorophenyl)-N-(trans)-(1-methoxy-2,3-dihydro-1H-inden-2-yl)-2-(6-oxo-1,6-dihydropyridazin-1-yl)acetamide]	7.05
COC1c2ccccc2CC1NC(=O)C(c1ccc(F)cc1F)N1CC(F)C1 (single isomer, unassigned) [Example 136, 2-(2,4-difluorophenyl)-2-(3-fluoroazetidin-1-yl)-N-(trans)-(1-methoxy-2,3-dihydro-1H-inden-2-yl)acetamide]	5.70
COC1c2ccccc2CC1NC(=O)C(c1ccc(F)cc1F)N1CC(F)C1 (single isomer, unassigned) [Example 137, 2-(2,4-difluorophenyl)-2-(3-fluoroazetidin-1-yl)-N-(trans)-(1-methoxy-2,3-dihydro-1H-inden-2-yl)acetamide]	6.13
COC1c2ccccc2CC1NC(=O)C(c1ccc(F)cc1F)N1CC(F)C1 (single isomer, unassigned) [Example 138, 2-(2,4-difluorophenyl)-2-(3-fluoroazetidin-1-yl)-N-(trans)-(1-methoxy-2,3-dihydro-1H-inden-2-yl)acetamide]	7.85
COC1c2ccccc2CC1NC(=O)C(c1ccc(F)cc1F)N1CC(F)C1 (single isomer, unassigned) [Example 139, 2-(2,4-difluorophenyl)-2-(3-fluoroazetidin-1-yl)-N-(trans)-(1-methoxy-2,3-dihydro-1H-inden-2-yl)acetamide]	7.21
COC1c2ccccc2CC1NC(=O)C(c1ccc(F)cc1)N1CC(F)C1 (single isomer, unassigned) [Example 140, 2-(4-fluorophenyl)-2-(3-fluoroazetidin-1-yl)-N-(trans)-(1-methoxy-2,3-dihydro-1H-inden-2-yl)acetamide]	5.90
COC1c2ccccc2CC1NC(=O)C(c1ccc(F)cc1)N1CC(F)C1 (single isomer, unassigned) [Example 141, 2-(4-fluorophenyl)-2-(3-fluoroazetidin-1-yl)-N-(trans)-(1-methoxy-2,3-dihydro-1H-inden-2-yl)acetamide]	7.41
COC1c2ccccc2CC1NC(=O)C(c1ccc(F)cc1)N1CC(F)C1 (single isomer, unassigned) [Example 142, 2-(4-fluorophenyl)-2-(3-fluoroazetidin-1-yl)-N-(trans)-(1-methoxy-2,3-dihydro-1H-inden-2-yl)acetamide]	7.21
COC1c2ccccc2CC1NC(=O)C(c1ccc(F)cc1)N1CC(F)C1 (single isomer, unassigned) [Example 143, 2-(4-fluorophenyl)-2-(3-fluoroazetidin-1-yl)-N-(trans)-(1-methoxy-2,3-dihydro-1H-inden-2-yl)acetamide]	5.90
COC1c2ccccc2CC1NC(=O)[C@H](NC(=O)C1CC1)c1ccc(F)cc1 (single isomer, unassigned) [Example 144]	6.72
CS(=O)(=O)C1c2ccccc2CC1NC(=O)C(OCC1CC1)c1ccccc1 (single isomer, unassigned) [Example 145, 2-(cyclopropylmethoxy)-N-(trans)-(1-methanesulfonyl-2,3-dihydro-1H-inden-2-yl)-2-phenylacetamide]	9.22
CS(=O)(=O)C1c2ccccc2CC1NC(=O)C(OCC1CC1)c1ccccc1 (single isomer, unassigned) [Example 146, 2-(cyclopropylmethoxy)-N-(trans)-(1-methanesulfonyl-2,3-dihydro-1H-inden-2-yl)-2-phenylacetamide]	8.40
CS(=O)(=O)C1c2ccccc2CC1NC(=O)C(OCC1CC1)c1ccccc1 (single isomer, unassigned) [Example 147, 2-(cyclopropylmethoxy)-N-(trans)-(1-methanesulfonyl-2,3-dihydro-1H-inden-2-yl)-2-phenylacetamide]	7.41
CS(=O)(=O)C1c2ccccc2CC1NC(=O)C(OCC1CC1)c1ccccc1 (single isomer, unassigned) [Example 148, 2-(cyclopropylmethoxy)-N-(trans)-(1-methanesulfonyl-2,3-dihydro-1H-inden-2-yl)-2-phenylacetamide]	7.80
CO[C@H](C(=O)NC1Cc2ccccc2C1S(C)(=O)=O)c1ccccc1 (single isomer, unassigned) [Example 158]	7.25
CO[C@H](C(=O)NC1Cc2ccccc2C1S(C)(=O)=O)c1ccccc1 (single isomer, unassigned) [Example 159]	7.60
